Test results from publication PMC5171706 (2016).

Tests used:
[1] = tested on: Pu24T (DNA, G4) TGAGGGTGGTGAGGGTGGGGAAGG; assay: gel mobility shift; conditions: K+ (10 mM potassium phosphate, 50 mM KCl); 20 μM DNA, room temperature
[2] = tested on: Pu24T (DNA, G4) TGAGGGTGGTGAGGGTGGGGAAGG; assay: 1H NMR titration; conditions: K+ (potassium phosphate); 298 K, 400 μM Piperine, H2O/D2O 9:1; Piperine resonances broaden
[3] = tested on: tel22 (DNA, G4) AGGGTTAGGGTTAGGGTTAGGG; assay: fluorescence titration of Piperine; conditions: K+ (10 mM potassium phosphate, 50 mM KCl); pH 7.0, 25 °C; two-site saturation fit, Kd1 and Kd2 only in Figure 2 and Table S1
[4] = tested on: tel22 (DNA, G4) AGGGTTAGGGTTAGGGTTAGGG; assay: time-resolved fluorescence (lifetime); conditions: K+ (10 mM potassium phosphate, 50 mM KCl); 40.0 μM Piperine, D/N 1.0 and 2.0; lifetime increases
[5] = tested on: Pu24T (DNA, G4) TGAGGGTGGTGAGGGTGGGGAAGG; assay: fluorescence titration of Piperine; conditions: K+ (10 mM potassium phosphate, 50 mM KCl); pH 7.0, 25 °C; two-site saturation fit, Kd1 and Kd2 only in Figure 2 and Table S1
[6] = tested on: Pu24T (DNA, G4) TGAGGGTGGTGAGGGTGGGGAAGG; assay: UV melting at 295 nm; conditions: K+ (10 mM potassium phosphate, 50 mM KCl); pH 7.0; derived from two Tm (75.0 and 79.0 °C); D/N = 2.0; 78.0 °C at D/N 1.0

Compound: O=C(/C=C/C=C/c1ccc2c(c1)OCO2)N1CCCCC1
- binding [1]: yes
- binding [2]: yes
- Kd1 [3]: 87.5 nM
- binding [4]: yes
- Kd1 [5]: 2.5 nM
- ΔTm [6]: 4.0 °C
